Laboratory results: ChEMBL document CHEMBL1139320, “PEG-immobilization of cardol and soluble polymer-supported synthesis of some cardol-coumarin derivatives: preliminary evaluation of their inhibitory activity on mushroom tyrosinase” (Bioorg Med Chem Lett, 2009)
pIC50: −log10 of the molar value.

Biological target: T1, Tyrosinase (Agaricus bisporus, UniProt O42713)
T1 sequence (O42713 whole entry): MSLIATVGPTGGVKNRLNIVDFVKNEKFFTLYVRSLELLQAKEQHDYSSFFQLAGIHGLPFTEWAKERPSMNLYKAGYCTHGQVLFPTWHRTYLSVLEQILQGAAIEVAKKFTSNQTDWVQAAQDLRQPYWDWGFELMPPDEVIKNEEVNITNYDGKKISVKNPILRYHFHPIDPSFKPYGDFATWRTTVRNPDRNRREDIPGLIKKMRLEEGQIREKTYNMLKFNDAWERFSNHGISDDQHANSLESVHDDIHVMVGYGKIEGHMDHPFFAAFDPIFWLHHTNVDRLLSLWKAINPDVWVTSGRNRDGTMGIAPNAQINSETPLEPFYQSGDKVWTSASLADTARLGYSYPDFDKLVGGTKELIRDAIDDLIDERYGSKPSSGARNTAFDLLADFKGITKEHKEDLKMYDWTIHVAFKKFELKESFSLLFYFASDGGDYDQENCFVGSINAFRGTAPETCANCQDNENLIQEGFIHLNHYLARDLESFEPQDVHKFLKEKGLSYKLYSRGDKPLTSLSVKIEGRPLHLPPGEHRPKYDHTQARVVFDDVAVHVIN
Description: Inhibition of mushroom tyrosine kinase assessed as oxidation of 0.25 mM L-3,4-dihydroxyphenylalanine

pIC50 | SMILES
6.01 | CCCCCCc1ccc(O)cc1O [HEXYLRESORCINOL]
2.84 | Oc1cccc(O)c1 [RESORCINOL]
